Measurements published in patent US8183006B2, “Screening method for identifying new aminoacyl-tRNA synthetase inhibitors” (Fundacio Privada Parc Cientific de Barcelona, priority 2006, dated 2012).

Experiments:
[1] = test system: HeLa cells expressing S. pneumoniae editing-defective isoleucyl-tRNA synthetase (IleRSTA); experiment: valine toxicity in transfected HeLa cells, cell death by propidium iodide staining (flow cytometry); type: cell-based, human; settings: IleRSTA-expressing HeLa cells compared to wild type IleRS or GFP expressing HeLa cells; FIG. 2
Protocol: Cell death was measured by propidium iodide staining. Axis y represents the percentage of cell survival (abbreviated as “% C.S.”) and axis x represents the concentration of valine (mM).
For transient transfections, 20 μg of each DNA construct was added to 500 μl water containing 252 mM CaCl2. Then, 500 μl of 2×Hepes-buffered-saline buffer (280 mM NaCl, 10 mM KCl, 1.5 mM Na2HPO4, 50 mM HEPES, 12 mM dextrose, pH 7.1) was added to the DNA mixture drop by drop. 16 hours after adding this transfection mixture to the cells, the medium containing DNA was removed and new medium was added. After 24 hours, transfected cells were used for experimentation.
10 μg/ml propidium iodide was used for determination of cell viability in transiently GFP fusion proteins transfected HeLa cells. Stained cells were analyzed immediately using a Coulter Epics XL (Beckman Coulter) and analyzed using System II software.
To assess whether the expression S. pneumoniae mutated editing domain GFPIleRS has a toxic effect in a mammalian system in the presence of increasing concentrations of valine in the media, GFP, S. pneumoniae wild type (IleRS) and mutated editing domain (IleRSTA) were expressed in HeLa cells.

[2] = test system: isoleucyl-tRNA synthetases (IleRS) from Gram-positive infectious pathogens; settings: cited from earlier work
[3] = limits use to topical applications; cited from earlier work

| Structure (SMILES) | sensitivity to cell death (% cell survival) with increasing concentrations of valine in the media [1] | selectivity for pathogen vs. mammalian IleRS [2] | systemic bioavailability [3] |
| --- | --- | --- | --- |
| CC(C)[C@H](N)C(=O)O [valine] | higher sensitivity | – | – |
| C/C(=C\C(=O)OCCCCCCCCC(=O)O)C[C@@H]1OC[C@H](C[C@@H]2O[C@H]2[C@@H](C)[C@H](C)O)[C@@H](O)[C@H]1O [Pseudomonic acid] | – | ~8000 fold | lack of systemic bioavailability |
